Data reported in EP1914304A1 (priority 1998, dated 1999).

Experiments:
[1] = tested on: E. coli KY895 harboring HSV-1 TK mutant R163P/H164Q; assay: Colony formation on acyclovir or AZT plates (secondary screen); type: cell-based; details: TK selection plates, 1 µg/mL thymidine + 1µg/mL acyclovir or 0.05 µg/mL AZT, 37°C, 16-24 hours
Method: (§1) […]. Mutant cultures were also spread onto duplicate TK selection and LB + carb^50 plates. One set of TK selection plates and LB + carb^50 plates were incubated at 42°C. All other plates were incubated at 37°C. After 16-24 hours the plates were scored.

[2] = tested on: E. coli KY895 harboring HSV-1 TK mutant F1611; assay: as above; type: cell-based; details: TK selection plates, 1 µg/mL thymidine + 1µg/mL acyclovir or 0.05 µg/mL AZT, 37°C, 16-24 hours
Method: as §1

[3] = tested on: E. coli KY895 harboring HSV-1 TK mutant TKF 105 (Leu-170 to Ile); assay: Negative selection on AZT-selection medium; type: cell-based; details: 0.05 µg/mL of AZT, 1.0 µg/mL of dT
Source text: (§2) This screen is based upon the premise that mutants with increased ability to phosphorylate AZT relative to dT would be unable to form colonies on the AZT-selection medium. In particular, the product, AZT monophosphate would be further phosphorylated by the host cell's nonspecific nucleotide kinases, or possibly by the mutant TK, incorporated into bacterial DNA by host DNA polymerases, terminate DNA synthesis, and thus prevent replication of the host chromosome.
(§3) Briefly, the TK mutants were first grown as individual colonies on TK-selection medium (1.0 µg/mL of dT), and then replica plated onto AZT-selection medium (0.05 µg/mL of AZT, 1.0 µg/mL of dT). All other components in the AZT-selection medium were the same as the TK-selection medium.

[4] = tested on: E. coli KY895 harboring HSV-1 TK mutant TKI 208 (Leu-170 to Val); assay: Negative selection on AZT-selection medium; type: cell-based; details: 0.05 µg/mL of AZT, 1.0 µg/mL of dT
Source text: as §2, §3

[5] = tested on: E. coli KY895 harboring HSV-1 TK mutant F1611/R163H; assay: Colony formation on acyclovir or AZT plates (secondary screen); type: cell-based; design: key: (++) indicates that the same number of colonies were observed as compared to control plates; (+) indicates that fewer (<20% those observed with pMCC) and generally smaller (~50°,% smaller diameter) colonies were observed as compared to control plates; (-) indicates that no colonies were observed; details: TK selection plates, 1 µg/mL thymidine + 1µg/mL acyclovir or 0.05 µg/mL AZT, 37°C, 16-24 hours
Method: as §1

[6] = tested on: E. coli KY895 harboring HSV-1 TK mutant F161L; assay: as above; type: cell-based; design: key: (++) indicates that the same number of colonies were observed as compared to control plates; (+) indicates that fewer (<20% those observed with pMCC) and generally smaller (~50°,% smaller diameter) colonies were observed as compared to control plates; (-) indicates that no colonies were observed; details: TK selection plates, 1 µg/mL thymidine + 1µg/mL acyclovir or 0.05 µg/mL AZT, 37°C, 16-24 hours
Method: as §1

[7] = tested on: E. coli KY895 harboring HSV-1 TK mutant P155A/F161V; assay: as above; type: cell-based; design: key: (++) indicates that the same number of colonies were observed as compared to control plates; (+) indicates that fewer (<20% those observed with pMCC) and generally smaller (~50°,% smaller diameter) colonies were observed as compared to control plates; (-) indicates that no colonies were observed; details: TK selection plates, 1 µg/mL thymidine + 1µg/mL acyclovir or 0.05 µg/mL AZT, 37°C, 16-24 hours
Method: as §1

[8] = tested on: E. coli KY895 harboring HSV-1 TK mutant F161C; assay: as above; type: cell-based; design: key: (++) indicates that the same number of colonies were observed as compared to control plates; (+) indicates that fewer (<20% those observed with pMCC) and generally smaller (~50°,% smaller diameter) colonies were observed as compared to control plates; (-) indicates that no colonies were observed; details: TK selection plates, 1 µg/mL thymidine + 1µg/mL acyclovir or 0.05 µg/mL AZT, 37°C, 16-24 hours
Method: as §1

[9] = tested on: E. coli KY895 harboring pMCC (wild-type HSV-1 TK); assay: as above; type: cell-based; design: key: (++) indicates that the same number of colonies were observed as compared to control plates; (+) indicates that fewer (<20% those observed with pMCC) and generally smaller (~50°,% smaller diameter) colonies were observed as compared to control plates; (-) indicates that no colonies were observed; details: TK selection plates, 1 µg/mL thymidine + 1µg/mL acyclovir or 0.05 µg/mL AZT, 37°C, 16-24 hours
Method: as §1

[10] = target: HSV-1 thymidine kinase mutant TKF 105 (Leu-170 to Ile) (Human herpesvirus 1, UniProt P06478, L170I); assay: Kinetics of AZT phosphorylation by purified TK (preliminary experiments); type: biochemical, Herpes Simplex Virus Type 1; details: preliminary experiments with purified TKF 105 TK
Method: Briefly, crude bacterial extract was passed three times through a 7-mL bed-volume affinity column. The column was then washed sequentially using 30 mL each of buffer A [0.1 M Tris HCl, pH 7.5/5 mM dithiothreitol (DTT)/10% glycerol], buffer B (0.1M Tris-HCl, pH 7.5/0.5 M KCl/5 mM DTT/10% glycerol), and buffer A. TK was eluted using a 60-mL linear gradient of 0-600 µM dT in buffer C (0.3 M Tris HCl, pH 7.4/50 mM KCl/10% glycerol). Active fractions were pooled and dialyzed against three changes each of 2 liters of 50 mM Tris-HCl, pH 7.4/5 mM DTT/10% glycerol. Except in the final dialysis, all the above buffers contained 50 µg/mL of aprotinin and 2 µg/mL each of pepstatin and leupeptin.
Secondly, the kinetics of AZT phosphorylation by the two mutants was determined. Briefly, reactions were carried out in a final volume of 100 µl containing 50 mM Tris-HCl (pH 7.5), 5 mM ATP. […] The amount of radioactivity adsorbed to the disc was determined by scintillation spectroscopy. Km and Vmax values were determined by using the Cleland SUBIN program (Cleland, Methods Enz. 63:103-138, 1979). The values for kcat were calculated using the equation Vmax = kcat[E]0, where [E]o = total enzyme concentration. […]

[11] = tested on: rat C6 glioblastoma cells transfected with TK mutant 30, subcutaneous tumor; assay: Mouse xenograft tumor model with prodrug treatment; type: in vivo, Nude mice; details: prodrug twice a day for 5 days from day 5; Figures 32-34
Method: (§4) Rat C6 glioblastoma cells were transfected with the stable expression vector pREP8D7:dualGFP as described above containing various TK mutants. […] Experiments were carried out to establish prodrug dosing levels for tumor ablation and efficacy of therapy. Nude mice (JAX Labs, Bar Harbor, Maine) were injected subcutaneously with 0.5 x10^6 transfected rat C6 cells. After 5 days, prodrugs (ACV and GCV) were administered twice a day for a further 5 days. Prodrug was given at either of two concentrations (shown as mg/kg). During this period and for an additional 6 days, tumor size was monitored by caliper measurement every other day. At the end of the period, mice were sacrificed and the tumors excised and weighed.

[12] = tested on: rat C6 glioblastoma cells transfected with TK mutant SR39, subcutaneous tumor; assay: Mouse xenograft tumor model with prodrug treatment; type: in vivo, Nude mice; details: prodrug twice a day for 5 days from day 5; Figures 32-34
Method: as §4

Sequence of HSV-1 thymidine kinase mutant TKF 105 (Leu-170 to Ile) (P06478 whole entry L170I): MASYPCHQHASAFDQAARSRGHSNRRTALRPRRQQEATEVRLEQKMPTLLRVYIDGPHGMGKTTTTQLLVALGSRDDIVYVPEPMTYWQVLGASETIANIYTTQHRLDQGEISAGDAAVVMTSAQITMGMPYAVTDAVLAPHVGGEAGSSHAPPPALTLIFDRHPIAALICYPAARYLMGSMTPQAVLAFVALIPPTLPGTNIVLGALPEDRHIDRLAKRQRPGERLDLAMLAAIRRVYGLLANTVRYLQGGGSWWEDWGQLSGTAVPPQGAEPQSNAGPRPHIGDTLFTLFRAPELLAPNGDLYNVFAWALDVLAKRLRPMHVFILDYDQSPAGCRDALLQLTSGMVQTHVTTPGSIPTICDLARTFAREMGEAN

Structure (SMILES) | colony formation on nucleoside analogue plates [1] | colony formation on nucleoside analogue plates [2] | colony formation on AZT-selection medium [3] | colony formation on AZT-selection medium [4] | colony formation on nucleoside analogue plates [5] | colony formation on nucleoside analogue plates [6] | colony formation on nucleoside analogue plates [7] | colony formation on nucleoside analogue plates [8] | colony formation on nucleoside analogue plates [9] | Km [10] [µM] | tumor reduction (tumor diameter, final tumor weight) [11] | tumor reduction (tumor diameter, final tumor weight) [12]
Cc1cn([C@H]2C[C@H](N=[N+]=[N-])[C@@H](CO)O2)c(=O)[nH]c1=O [AZT, 3' azido-3' thymidine] | + ((+) indicates that fewer (<20% those observed with pMCC) and generally smaller (~50°,% smaller diameter) colonies were observed as compared to control plates) | + ((+) indicates that fewer (<20% those observed with pMCC) and generally smaller (~50°,% smaller diameter) colonies were observed as compared to control plates) | not on the AZT-selection medium | not on the AZT-selection medium | ++ | ++ | + ((+) indicates that fewer (<20% those observed with pMCC) and generally smaller (~50°,% smaller diameter) colonies were observed as compared to control plates) | - | ++ | 3.7 |  | 
Nc1nc2c(ncn2COCCO)c(=O)[nH]1 [acyclovir] | + ((+) indicates that fewer (<20% those observed with pMCC) and generally smaller (~50°,% smaller diameter) colonies were observed as compared to control plates) | + ((+) indicates that fewer (<20% those observed with pMCC) and generally smaller (~50°,% smaller diameter) colonies were observed as compared to control plates) |  |  | ++ | ++ | ++ | + ((+) indicates that fewer (<20% those observed with pMCC) and generally smaller (~50°,% smaller diameter) colonies were observed as compared to control plates) | ++ |  | significant tumor reduction | significant tumor reduction
